Laboratory results as given in ChEMBL document CHEMBL1153136, “Novel benzoylpiperidine-based stearoyl-CoA desaturase-1 inhibitors: Identification of 6-[4-(2-methylbenzoyl)piperidin-1-yl]pyridazine-3-carboxylic acid (2-hydroxy-2-pyridin-3-ylethyl)amide and its plasma triglyceride-lowering effects in Zucker fatty rats” (Bioorg Med Chem Lett, 2010).
≈ marks a conversion by molar mass, not a printed value. Calls of active or inactive are those of the source. The calls are words filed in the database; no cut-off is given here.

Legend:
[1] = molecular target: T1, Acyl-CoA desaturase 1 (Mus musculus, UniProt P13516); test: Inhibition of Scd1 in mouse liver microsomes assessed as conversion of [14C]stearate to [14C]oleate pretreated for 10 mins measured after 60 mins; parameters: species or system Microsome
T1 sequence (P13516 whole entry): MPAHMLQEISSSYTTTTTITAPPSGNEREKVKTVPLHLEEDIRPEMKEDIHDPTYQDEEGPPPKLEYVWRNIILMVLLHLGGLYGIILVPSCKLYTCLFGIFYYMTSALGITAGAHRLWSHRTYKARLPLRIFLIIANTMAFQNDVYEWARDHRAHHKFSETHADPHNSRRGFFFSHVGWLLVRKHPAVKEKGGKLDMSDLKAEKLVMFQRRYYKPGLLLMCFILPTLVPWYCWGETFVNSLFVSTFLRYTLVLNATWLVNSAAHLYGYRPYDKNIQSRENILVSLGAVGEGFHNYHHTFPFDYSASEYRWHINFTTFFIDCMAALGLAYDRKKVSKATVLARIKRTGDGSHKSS

[2] = molecular target: T2, Stearoyl-CoA desaturase (Homo sapiens, UniProt O00767); test: Inhibition of human Scd1 expressed in HEK293A cells assessed as conversion of [14C]stearate to [14C]oleate pretreated for 30 mins measured after 4 hrs; format: cell-based, HEK293-A
T2 sequence (O00767 whole entry): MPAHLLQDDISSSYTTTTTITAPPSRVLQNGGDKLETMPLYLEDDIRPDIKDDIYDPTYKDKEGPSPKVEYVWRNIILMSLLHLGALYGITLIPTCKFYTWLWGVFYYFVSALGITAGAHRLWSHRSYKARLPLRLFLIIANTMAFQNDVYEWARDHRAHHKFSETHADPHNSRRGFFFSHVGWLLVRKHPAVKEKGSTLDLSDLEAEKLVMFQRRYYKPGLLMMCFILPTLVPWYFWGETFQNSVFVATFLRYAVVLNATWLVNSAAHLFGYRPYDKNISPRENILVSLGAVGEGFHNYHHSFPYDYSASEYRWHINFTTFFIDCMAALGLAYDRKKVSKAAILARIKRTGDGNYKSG

[3] = molecular target: T2, Stearoyl-CoA desaturase; test: Inhibition of Scd1 in human HEK293A cell microsomes assessed as conversion of [14C]stearate to [14C]oleate pretreated for 10 mins measured after 60 mins; parameters: species or system HEK293-A, Microsome
[4] = molecular target: T3, Stearoyl-CoA desaturase (Homo sapiens) (UniProt O00767); test: Inhibition of human Scd1 assessed as conversion of [14C]stearate to [14C]oleate at 10 uM pretreated for 30 mins measured after 4 hrs
T3 sequence (whole entry): T2 sequence (O00767 whole entry)

[5] = Solubility in aqueous acidic solution at pH 1.2; format: physicochemical
[6] = Solubility in neutral solution at pH 6.8; format: physicochemical
[7] = Metabolic stability in mouse liver S9 fraction assessed as compound remaining after 30 mins; format: ADME, subcellular; conditions: read-out: Stability
[8] = test system: Mus musculus; test: Inhibition of Scd1 in po dosed db/db mouse assessed as [14C]oleate to [14C]stearate ratio in liver administered 2 hrs before [14C]stearate challenge measured after 1 hr; format: functional; conditions: read-out: ID50 (the source's name)
[9] = Half life in C57BL/6 mouse at 20 mg/kg, po; format: ADME, organism-based; parameters: dose 20 mg/kg, route oral; conditions: in vivo
[10] = AUC (0 to 8 hrs) in C57BL/6 mouse at 20 mg/kg, po; format: ADME, organism-based; parameters: time < 8 hr, dose 20 mg/kg, route oral; conditions: plasma
[11] = Oral bioavailability in C57BL/6 mouse at 20 mg/kg; format: ADME, organism-based; conditions: in vivo
[12] = test system: Rattus norvegicus; test: Reduction of plasma triglyceride level in Zucker fatty rat at 30 mg/kg, po qd for 7 days; format: functional; parameters: scale not given: the % may be the effect or the level left
[13] = test system: Rattus norvegicus; test: Reduction of plasma triglyceride level in po dosed Zucker fatty rat administered qd for 7 days; format: functional, organism-based
[14] = test system: Rattus norvegicus; test: Toxicity in Zucker fatty rat assessed as reduction of body weight at 30 mg/kg, po qd for 7 days; format: organism-based; parameters: dose 30 mg/kg, route oral; scale not given: the % may be the effect or the level left; conditions: in vivo, 168 h
[15] = test system: Rattus norvegicus; test: Reduction of plasma glucose level in Zucker fatty rat at 30 mg/kg, po qd for 7 days; format: functional, organism-based; parameters: dose 30 mg/kg
[16] = test system: Rattus norvegicus; test: Reduction of plasma insulin level in Zucker fatty rat at 30 mg/kg, po qd for 7 days; format: functional, organism-based; parameters: dose 30 mg/kg
[17] = test system: Rattus norvegicus; test: Toxicity in Zucker fatty rat assessed as induction of cutaneous abnormalities at 30 mg/kg, po qd for 7 days; format: organism-based; parameters: dose 30 mg/kg, route oral; conditions: in vivo, 168 h
[18] = test system: Rattus norvegicus; test: Toxicity in Zucker fatty rat assessed as induction of narrow eye fissure at 30 mg/kg, po qd for 7 days; format: organism-based; parameters: dose 30 mg/kg, route oral; conditions: in vivo, 168 h
[19] = Half life in C57BL/6 mouse at 5 mg/kg, iv; format: ADME, organism-based; parameters: dose 5 mg/kg, route intravenous; conditions: in vivo
[20] = Clearance in C57BL/6 mouse at 5 mg/kg, iv; format: ADME, organism-based; parameters: dose 5 mg/kg, route intravenous; conditions: in vivo
[21] = Volume of distribution in C57BL/6 mouse at 5 mg/kg, iv; format: ADME, organism-based; parameters: dose 5 mg/kg, route intravenous; conditions: in vivo
[22] = Cmax in C57BL/6 mouse at 20 mg/kg, po; format: ADME, organism-based; parameters: dose 20 mg/kg, route oral; conditions: in vivo

Row | SMILES | IC50 [1] [nM] | IC50 [2] [nM] | IC50 [3] [nM] | inhibition [4] [%] | ED50 [8] [mg/kg] | further results
1 | O=C(NCC(O)c1ccccc1)c1ccc(N2CCC(C(=O)c3ccccc3C(F)(F)F)CC2)nn1 (stereo unspecified) | 2 | 14 | 7 | 9 |  | solubility [5]: 84 µM (≈ 41.9 µg/mL); solubility [6]: < 0.5 µM; remaining at 0.5 h [7]: 47%
2 | Cc1ccccc1C(=O)C1CCN(c2ccc(C(=O)NCC(O)c3ccncc3)nn2)CC1 (stereo unspecified) | 34 | 144 | 187 |  |  | 
3 | Cc1ccccc1C(=O)C1CCN(c2ccc(C(=O)NCC(O)c3ccc(F)cc3)nn2)CC1 (stereo unspecified) | 7 | 22 | 5 |  | 14 | 
4 | Cc1ccccc1C(=O)C1CCN(c2ccc(C(=O)NCC(O)c3cccc(F)c3)nn2)CC1 (stereo unspecified) | 5 | 11 | 6 |  | 14 | 
5 | Cc1ccccc1C(=O)C1CCN(c2ccc(C(=O)NCC(O)c3cccs3)nn2)CC1 (stereo unspecified) | 7 | 25 | 44 |  | 14 | 
6 | O=C(NCC(O)c1ccccc1)c1ccc(N2CCC(C(=O)c3ccc(F)cc3)CC2)nn1 (stereo unspecified) | 74 | 80 | 118 | 12 |  | 
7 | O=C(NCCc1ccccc1)c1ccc(N2CCN(C(=O)c3ccccc3C(F)(F)F)CC2)nc1 | 194 |  | 99 |  |  | 
8 | O=C(NCC(O)c1ccccc1)c1ccc(N2CCC(C(=O)c3ccccc3OC(F)(F)F)CC2)nn1 (stereo unspecified) | 5 | 103 | 10 | < 5 |  | solubility [5]: 83 µM (≈ 42.7 µg/mL); solubility [6]: < 0.5 µM; remaining at 0.5 h [7]: 22%
9 | Cc1ccccc1C(=O)C1CCN(c2ccc(C(=O)NCC(O)c3cccnc3)nn2)CC1 (stereo unspecified) | 37 | 43 | 28 |  | 3 | half-life [9]: 54 min; AUC(0-t) at 8 h [10]: 7800 ng·h/mL; bioavailability [11]: 68%; Activity [12]: 56%; Activity [13]: Dose-dependent effect; Activity [14]: 15%; Activity [15]: inactive; Activity [16]: inactive; Activity [17]: Non-toxic; Activity [18]: Non-toxic; solubility [5]: > 100 µM; solubility [6]: 29 µM (≈ 12.9 µg/mL); remaining at 0.5 h [7]: 1.1%; half-life [19]: 78 min; clearance [20]: 29 mL/min/kg; Vd [21]: 2.4 L/kg; Cmax [22]: 6300 ng/mL
10 | O=C(NCCc1ccccc1)c1ccc(N2CCN(C(=O)c3ccccc3C(F)(F)F)CC2)cn1 | 370 |  | 250 |  |  | 
11 | COc1ccccc1C(=O)C1CCN(c2ccc(C(=O)NCC(O)c3ccccc3)nn2)CC1 (stereo unspecified) | 52 | 1050 | 311 | < 5 |  | 
12 | O=C(NCC(O)c1ccccc1)c1ccc(N2CCC(C(=O)c3ccccc3)CC2)nn1 (stereo unspecified) | 153 | 108 | 292 | < 5 |  | 
13 | Cc1ccccc1C(=O)C1CCN(c2ccc(C(=O)NCC(O)c3ccccc3)nn2)CC1 (stereo unspecified) |  |  |  | < 5 | 12 | half-life [9]: 48 min; AUC(0-t) at 8 h [10]: 500 ng·h/mL; bioavailability [11]: 6%; solubility [5]: 88 µM (≈ 39.1 µg/mL); solubility [6]: 3 µM (≈ 1.33 µg/mL); remaining at 0.5 h [7]: 58%; half-life [19]: 36 min; clearance [20]: 42 mL/min/kg; Vd [21]: 0.9 L/kg; Cmax [22]: 300 ng/mL
14 | O=C(NCCc1ccccc1)c1ccc(N2CCN(C(=O)c3ccccc3C(F)(F)F)CC2)cc1 | 150 |  | 820 |  |  | 
15 | Cc1ccccc1C(=O)C1CCN(c2ccc(C(=O)NCC(O)c3ccccc3F)nn2)CC1 (stereo unspecified) | 9 | 60 | 22 |  | 17 | 
16 | Cc1ccccc1C(=O)C1CCN(c2ccc(C(=O)NCC(O)c3ccsc3)nn2)CC1 (stereo unspecified) | 3 | 21 | 7 |  | 16 | 
17 | Cc1ccccc1C(=O)C1CCN(c2ccc(C(=O)NCC(O)c3ccccn3)nn2)CC1 (stereo unspecified) | 95 | 390 | 180 |  |  | 
